Assay: Whole blood stability assay
Type: in vitro ADME
Conditions: prodrug 50 nM, fresh pooled human whole blood, 37 degrees C.; read-out: t1/2 at 37 degrees C. in human whole blood
Experimental: Naltrexone prodrug stability was assessed using freshly collected whole blood (within 24-hr collection) from pooled human (n=3) donors. The incubation mixtures were prepared by spiking the prodrugs into pre-warmed (37 degrees C.) fresh whole blood to a final concentration of 50 nM. After gentle mixing, aliquots of incubation mixtures were immediately transferred into four different 96-deep well plates. One plate was used for each time point. The plates were incubated at 37 degrees C. at a shaking speed of 100 rpm. At time points 15, 30, 60 and 120 minutes, the reaction was quenched by addition of a mixture of water and acetonitrile containing the internal standard (naltrexone-D3). Time point 0 minutes was prepared separately by spiking the prodrugs into a quenched whole blood to obtain a final concentration of 50 nM. All samples were vortexed at a low speed for 15 min and centrifuged at 3900 rpm for 15 min. Supernatants were transferred into 96-well plates for LC-MS/MS analysis to monitor the depletion of the prodrugs and the formation of naltrexone.
The amount of remaining prodrug and released naltrexone for each sample was quantitated against the calibration curves prepared with the whole blood. The human whole blood was purchased from BioreclamationIVT (Westbury, N.Y., USA). Naltrexone-D3 was purchased from CERILLIANT® (Round Rock, Tex., USA). […] Where multiple runs have been completed, average values are reported.

| SMILES | half-life at 50 nM [min] |
| --- | --- |
| O=C(Cc1ccc2ccc(CC(=O)Oc3ccc4c5c3O[C@H]3C(=O)CC[C@@]6(O)[C@@H](C4)N(CC4CC4)CC[C@]536)cc2c1)Oc1ccc2c3c1O[C@H]1C(=O)CC[C@@]4(O)[C@@H](C2)N(CC2CC2)CC[C@]314 [Compound 10, bis((4R,4aS,7aR,12bS)-3-(cyclopropylmethyl)-4a-hydroxy-7-oxo-2,3,4,4a,5,6,7,7a-octahydro-1H-4,12-methanobenzofuro[3,2-e]isoquinolin-9-yl) 2,2′-(naphthalene-2,7-diyl)diacetate] | 14.7 |
| O=C(Cc1cccc2c(CC(=O)Oc3ccc4c5c3O[C@H]3C(=O)CC[C@@]6(O)[C@@H](C4)N(CC4CC4)CC[C@]536)cccc12)Oc1ccc2c3c1O[C@H]1C(=O)CC[C@@]4(O)[C@@H](C2)N(CC2CC2)CC[C@]314 [Compound 1, bis((4R,4aS,7aR,12bS)-3-(cyclopropylmethyl)-4a-hydroxy-7-oxo-2,3,4,4a,5,6,7,7a-octahydro-1H-4,12-methanobenzofuro[3,2-e]isoquinolin-9-yl) 2,2′-(naphthalene-1,5-diyl)diacetate] | 26.4 |
| Cc1c(CC(=O)Oc2ccc3c4c2O[C@H]2C(=O)CC[C@@]5(O)[C@@H](C3)N(CC3CC3)CC[C@]425)ccc2c(C)c(CC(=O)Oc3ccc4c5c3O[C@H]3C(=O)CC[C@@]6(O)[C@@H](C4)N(CC4CC4)CC[C@]536)ccc12 [Compound 7, bis((4R,4aS,7aR,12bS)-3-(cyclopropylmethyl)-4a-hydroxy-7-oxo-2,3,4,4a,5,6,7,7a-octahydro-1H-4,12-methanobenzofuro[3,2-e]isoquinolin-9-yl) 2,2′-(1,5-dimethylnaphthalene-2,6-diyl)diacetate] | 58.6 |
| CC(=O)Oc1c(CC(=O)Oc2ccc3c4c2O[C@H]2C(=O)CC[C@@]5(O)[C@@H](C3)N(CC3CC3)CC[C@]425)ccc2c(OC(C)=O)c(CC(=O)Oc3ccc4c5c3O[C@H]3C(=O)CC[C@@]6(O)[C@@H](C4)N(CC4CC4)CC[C@]536)ccc12 [Compound 3, bis((4R,4aS,7aR,12bS)-3-(cyclopropylmethyl)-4a-hydroxy-7-oxo-2,3,4,4a,5,6,7,7a-octahydro-1H-4,12-methanobenzofuro[3,2-e]isoquinolin-9-yl) 2,2′-(1,5-diacetoxynaphthalene-2,6-diyl)diacetate] | 14.8 |
| O=C(Cc1cccc2cccc(CC(=O)Oc3ccc4c5c3O[C@H]3C(=O)CC[C@@]6(O)[C@@H](C4)N(CC4CC4)CC[C@]536)c12)Oc1ccc2c3c1O[C@H]1C(=O)CC[C@@]4(O)[C@@H](C2)N(CC2CC2)CC[C@]314 [Compound 9, bis((4R,4aS,7aR,12bS)-3-(cyclopropylmethyl)-4a-hydroxy-7-oxo-2,3,4,4a,5,6,7,7a-octahydro-1H-4,12-methanobenzofuro[3,2-e]isoquinolin-9-yl) 2,2′-(naphthalene-1,8-diyl)diacetate] | 40.9 |
| O=C(Cc1ccc2c(F)c(CC(=O)Oc3ccc4c5c3O[C@H]3C(=O)CC[C@@]6(O)[C@@H](C4)N(CC4CC4)CC[C@]536)ccc2c1F)Oc1ccc2c3c1O[C@H]1C(=O)CC[C@@]4(O)[C@@H](C2)N(CC2CC2)CC[C@]314 [Compound 5, bis((4R,4aS,7aR,12bS)-3-(cyclopropylmethyl)-4a-hydroxy-7-oxo-2,3,4,4a,5,6,7,7a-octahydro-1H-4,12-methanobenzofuro[3,2-e]isoquinolin-9-yl) 2,2′-(1,5-difluoronaphthalene-2,6-diyl)diacetate] | 20.4 |

From patent publication US10799496B2, “Naphthylenyl compounds for long-acting injectable compositions and related methods” (priority 2018, dated 2020)
